Test results taken from patent US11679107B2 (Eisai R&D Management Co., Ltd., priority 2018, dated 2023).
Where two headings read alike, the source gives them in different places.

Key:
[1] = system: Ad2 variant pre-mRNAs spliced in HeLa S3 nuclear extracts; experiment: In vitro splicing assay (IVS), RT-qPCR of spliced product; assay type: biochemical; conditions: for IC50: geometric mean; for Ratio Ad2.1/2.2: ratio of IVS IC50 Ad2.1 to Ad2.2
How it was run: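 Ad2 variant pre-mRNA (2 ng) with FTZΔi control RNA in HeLa S3 nuclear extract (8 μg) was pre-incubated with compound or DMSO for 15 min at 30 °C. Splicing ran 90 min at 30 °C after adding 0.5 mM ATP, creatine phosphate and MgCl2. Spliced product was quantified by TaqMan RT-qPCR, normalized to DMSO, and curve-fitted.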

[2] = biological target: T1, SF3b complexes (Homo sapiens, UniProt O75533+Q7RTV0); experiment: Scintillation proximity assay (SPA) with [3H]-labelled pladienolide probe; assay type: binding; conditions: SF3B1 (WT); geometric mean; read-out: SPA-ATS GMean IC50 (nM) SF3B1 (WT)
T1 construct: endogenous in cells; host or cells: Nuclear extracts; A HeLa S3 extract preparation is described for the in vitro splicing assay
Protocol: Scintillation Proximity Assay (SPA) with [^3-H]-Labelled Pladienolide Probe
Batch immobilization of anti-SF3B1 antibody (MBL) to anti-mouse PVT SPA scintillation beads (PerkinElmer) was prepared as follows: for every 2.5 mg of nuclear extracts, 5 μg anti-SF3B1 antibody and 1.5 mg of beads were mixed in 150 μl PBS. The antibody-bead mixture was incubated for 30 min at RT and centrifuged at 18,000 g for 5 min. 150 μl PBS was used to resuspend every 1.5 mg antibody-bead mixture. The beads were suspended and added to the prepared nuclear extracts. The slurry was incubated for 2 h at 4° C. with gentle mixing. The beads were then collected by centrifuging at 18,000 g for 5 min, and washed twice with PBS+0.1% Triton X-100. After a final centrifugation step, every 1.5 mg of beads was suspended with 150 μl of PBS. The SF3b complexes were tested for [^3H]-labelled pladienolide probe binding ([^3H]—PB), synthesized as previously described (Kotake et al., 2007). 100 μl binding reactions were prepared with 50 μl bead slurry and by adding varying concentrations of PB or PB—OH, and after 30 min pre-incubation, 2.5 nM [^3H]—PB was added. The mixture was incubated for 30 min, and luminescence signals were read using a MicroBeta2 Plate Counter (PerkinElmer). Prism 6 (Graphpad) was used for non-linear regression curve fitting of the data. • a. • b. HeLa nuclear extract preparation (for in vitro splicing modulation assay below) • c. HeLa S3 cell pellets were resuspended in hypotonic buffer (10 mM HEPES pH 7.9, 1.5 mM MgCl2, 10 mM KCl, 0.2 mM PMSF, and 0.5 mM DTT) and the suspension was brought up to a total of 5 packed cell volume (PCV). After centrifugation, the supernatant was discarded, and the cells were brought up to 3 PCV with hypotonic buffer and incubated on ice for 10 minutes. Cells were lysed using a dounce homogenizer and then centrifuged. The supernatant was discarded, and the pellet was resuspended with ½ packed nuclear volume (PNV) of low salt buffer (20 mM HEPES pH 7.9, 1.5 mM MgCl2, 20 mM KCl, 0.2 mM EDTA, 25% glycerol, 0.2 mM PMSF, 0.5 mM DTT), followed by ½ PNV of high salt buffer (same as low salt buffer except 1.4 M KCl was used). The nuclei were gently mixed for 30 minutes before centrifuging. The supernatant (nuclear extract) was then dialyzed into storage buffer (20 mM HEPES pH 7.9, 100 mM KCl, 0.2 mM EDTA, 20% glycerol, 0.2 mM PMSF, 0.5 mM DTT). Protein concentration was determined using NanoDrop 8000 UV-Vis spectrophotometer (ThermoFisher Scientific). • d. In vitro splicing assay (IVS)

[3] = system: NCI-H1568 cells (high MCL1); experiment: Cell proliferation and viability, CellTiter-Glo, 72 hours; assay type: cell-based; conditions: for GI50: geometric mean
How it was run: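 Cells grown in RPMI-1640 with 10% FBS (Panc line with added insulin and FBS to 15%) were exposed to an 11-point half-log dilution series, typically 10 μM-100 pM, at 0.1% final DMSO. After incubation at 37° C, 5% CO2, ATP content was measured by luminescence and normalized to a time-zero plate and DMSO wells.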

[4] = Ad2.1 pre-mRNA substrate, read-out: qPCR-IVS-ATS GMean IC50 (nM) Ad2.1
[5] = Ad2.2 pre-mRNA substrate, read-out: qPCR-IVS-ATS GMean IC50 (nM) Ad2.2
[6] = 72 h, NCIH1568.1, -100% = cidal, 0% = static, 100% = uninhibited growth
[7] = NCI-H1568, 72 h, read-out: CTGlo-ATS GMean GI50 (nM) 72 h NCIH1568.1, 72 h, NCIH1568.1
[8] = NCI-H1568, read-out: CTGlo-ATS GMean GI50 (nM) 72 h NCIH1568.1, NCIH1568.1 cells, 72 h
[9] = NCIH1568.1 cells, 72 h, −100% cidal, 0% static, 100% maximal growth
[10] = NCI-H1568, 72 h, read-out: CTGlo-ATS GMean GI50 (nM) 72 h NCIH1568.1, NCIH1568.1 cells, 72 h
[11] = NCI-H1568, read-out: CTGlo-ATS GMean GI50 (nM) 72 h NCIH1568.1, 72 h, NCIH1568.1

Structure (SMILES) | IC50 [1, 4] [nM] | IC50 [1, 5] [nM] | Ratio Ad2.1/2.2 [1] | IC50 [2] [nM] | CTGlo-ATS Mean MinResponse % 72 h NCIH1568.1 [3, 6] [%] | GI50 [3, 7] [nM] | GI50 [3, 8] [nM] | CTGlo-ATS Mean MinResponse % 72 h NCIH1568.1 [3, 9] [%] | GI50 [3, 10] [nM] | GI50 [3, 11] [nM]
C/C(=C\c1cc(F)cc(N2CCN(C(=O)Cn3cccn3)CC2)c1)[C@H]1OC(=O)C[C@H](O)CC[C@H](C)[C@@H](OC(=O)N2CCN(Cc3cccnc3)CC2)/C=C/[C@@H]1C [Compound 252, [(2S,3S,4E,6R,7S,10R)-2-[(E)-1-[3-fluoro-5-[4-(2-pyrazol-1-ylacetyl)piperazin-1-yl]phenyl]prop-1-en-2-yl]-10-hydroxy-3,7-dimethyl-12-oxo-1-oxacyclododec-4-en-6-yl] 4-(pyridin-3-ylmethyl)piperazine-1-carboxylate] | 22.6 | 27.4 | 0.825 | 21.8 | −76.109 | 10.3 |  |  |  | 
C/C(=C\c1cc(F)c2nnn(C3CCN(C(=O)OC(C)(C)C)CC3)c2c1)[C@H]1OC(=O)C[C@H](O)CC[C@H](C)[C@@H](OC(=O)N2CCN(C)CC2)/C=C/[C@@H]1C [Compound 144] | 23 | 17.8 |  | 12.9 |  |  | 4.12 | −95.432 |  | 
C/C(=C\c1cc(F)cc(N(C)C2CCN(S(=O)(=O)C3CCCC3)CC2)c1)[C@H]1OC(=O)C[C@H](O)CC[C@H](C)[C@@H](OC(=O)N2CCN(C)CC2)/C=C/[C@@H]1C [Compound 183] | 713 | 20.3 |  | 66.3 |  |  |  | −66.270 | 53.6 | 
C/C(=C\c1cc(F)cc(N(C)C2CCN(C(=O)C(F)(F)F)CC2)c1)[C@H]1OC(=O)C[C@H](O)CC[C@H](C)[C@@H](OC(=O)N2CCN(C)CC2)/C=C/[C@@H]1C [Compound 181] | 19.7 | 19.2 |  | 8.2 |  |  | 9.74 | −85.226 |  | 
C/C(=C\c1cc(F)cc(N2CCN(C(=O)Cn3cccn3)CC2)c1)[C@H]1OC(=O)C[C@H](O)CC[C@H](C)[C@@H](OC(=O)N2CCN(c3ccncc3)CC2)/C=C/[C@@H]1C [Compound 237, [(2S,3S,4E,6R,7S,10R)-2-[(E)-1-[3-fluoro-5-[4-(2-pyrazol-1-ylacetyl)piperazin-1-yl]phenyl]prop-1-en-2-yl]-10-hydroxy-3,7-dimethyl-12-oxo-1-oxacyclododec-4-en-6-yl] 4-pyridin-4-ylpiperazine-1-carboxylate] | 18.6 | 9.33 | 1.989 | 8.37 | −78.619 | 12 |  |  |  | 
C/C(=C\c1cc(F)cc(N(C)C2CCN(C(=O)c3cnccn3)CC2)c1)[C@H]1OC(=O)C[C@H](O)CC[C@H](C)[C@@H](OC(=O)N2CCN(C)CC2)/C=C/[C@@H]1C [Compound 189] | 16.9 | 10.3 |  | 6.8 |  |  | 9.53 | −76.052 |  | 
C/C(=C\c1cc(F)cc(N2CCN(C(=O)Cn3cccn3)CC2)c1)[C@H]1OC(=O)C[C@H](O)CC[C@H](C)[C@@H](OC(=O)N2CCN(C3CCCCCC3)CC2)/C=C/[C@@H]1C [Compound 236, [(2S,3S,4E,6R,7S,10R)-2-[(E)-1-[3-fluoro-5-[4-(2-pyrazol-1-ylacetyl)piperazin-1-yl]phenyl]prop-1-en-2-yl]-10-hydroxy-3,7-dimethyl-12-oxo-1-oxacyclododec-4-en-6-yl] 4-cycloheptylpiperazine-1-carboxylate] | 49.9 | 56.2 | 0.889 | 84 | −90.096 |  |  |  |  | 9.92
COCC(=O)N[C@H]1CCN(c2cc(F)cc(/C=C(\C)[C@H]3OC(=O)CC(O)CCC(C)[C@@H](OC(=O)N4CCN(C)CC4)/C=C/[C@@H]3C)c2)C1 (stereo in doubt) [Compound 218, [(2S,3S,4E,6R,7R,10S)-2-[(E)-1-[3-fluoro-5-[(3S)-3-[(2-methoxyacetyl)amino]pyrrolidin-1-yl]phenyl]prop-1-en-2-yl]-10-hydroxy-3,7-dimethyl-12-oxo-1-oxacyclododec-4-en-6-yl] 4-methylpiperazine-1-carboxylate] | 30.5 | 5.62 | 5.425 | 2.79 | −75.420 |  |  |  |  | 6.2
C/C(=C\c1cc(F)cc(N2CCN(C(=O)Cn3cccn3)CC2)c1)[C@H]1OC(=O)C[C@H](O)CC[C@H](C)[C@@H](OC(=O)N2CCNC(=O)C2)/C=C/[C@@H]1C [Compound 230, [(2S,3S,4E,6R,7S,10R)-2-[(E)-1-[3-fluoro-5-[4-(2-pyrazol-1-ylacetyl)piperazin-1-yl]phenyl]prop-1-en-2-yl]-10-hydroxy-3,7-dimethyl-12-oxo-1-oxacyclododec-4-en-6-yl] 3-oxopiperazine-1-carboxylate] | 11.7 | 10.9 | 1.078 | 12.9 | −69.108 |  |  |  |  | 15.9
C/C(=C\c1cc(F)cc(NC2CCN(S(C)(=O)=O)CC2)c1)[C@H]1OC(=O)C[C@H](O)CC[C@H](C)[C@@H](OC(=O)N2CCN(C)CC2)/C=C/[C@@H]1C [Compound 173] | 88.1 | 28.4 |  | 21 |  |  |  | −79.437 | 15.2 | 
CCN(c1cc(F)cc(/C=C(\C)[C@H]2OC(=O)C[C@H](O)CC[C@H](C)[C@@H](OC(=O)N3CCN(C)CC3)/C=C/[C@@H]2C)c1)C1CCN(S(C)(=O)=O)CC1 [Compound 175] | 9.5 | 8.12 |  | 5.83 |  |  |  | −99.134 | 9.49 | 
